US20040214785A1, “Surface sanitizing compositions with improved antimicrobial performance” (priority 2003, published 2004)
≈ marks a conversion by molar mass, not a printed value.

Key:
[1] = tested on: methicillin-resistant Staphylococcus aureus (MRSA); experiment: Bactericidal assay (MBC), subculture of dilutions on TSB agar; format: cell-based; conditions: challenge with 1×10^4 MRSA
Procedure: S. aureus maintained as a frozen culture with 10% (v/v) glycerol at −80° C. was thawed and then propagated on trypticase soy broth (TSB) or agar plates at room temperature (R.T.); determinations for Most Probable Number (MPN) in given samples were performed at 37° C., using standard assay techniques.
Tested sanitizers comprised commercially available gel products (i.e., “Brand A” and “Brand B”) from two manufacturers; these gels were comprised substantially of ethanol (60-70% w/w). […] Additional prototype liquid preparations (“Brand C1” and “Brand C2”) were substantially comprised of mixtures of alcohol (60-70% ethanol or isopropanol, w/w) combined with triclosan (approximately 0.04% w/w). Finally, triclosan was added to certain of the commercially available products (Brand B) to yield modified products containing triclosan at a level of approximately 0.04% w/w (“Brand B1”).
Killing of bacteria at each dilution (i.e., minimum bactericidal concentration, MBC) was determined by removing 5 μL aliquots and subculturing these on the surface of a TSB agar plate. Plates were incubated overnight at 37° C. and observed for growth. Studies were performed at 30 sec, at 5, 10, and 30 min, and at 1, 2, 4, and 8 hours after adding the challenge bacteria.

bacteria = conditions: MMWR/RR-16; cited from earlier work
[2] = tested on: bacterial counts on hands; conditions: Triclosan (0.1%), after a 1-minute hygienic handwash; cited from earlier work
S. aureus = conditions: against S. aureus; Johnson et al. 2002; cited from earlier work
E. coli = conditions: against E. coli; Johnson et al. 2002; cited from earlier work
[3] = cited from earlier work
[4] = topically-applied; cited from earlier work

Oc1cc(Cl)ccc1Oc1ccc(Cl)cc1Cl [Triclosan, 2,4,4′-trichloro-2′-hydroxy-diphenyl ether]
dilution at which preparation is still bactericidal [1]: ≤ 10 fold | minimum bactericidal concentrations (bacteria): 25 to 500 µg/mL | reduction of bacterial counts on hands [2]: 2.8 log10 | MBC (S. aureus): 7.5 µg/mL (≈ 25.9 µM) | MBC (E. coli): 1.3 µg/mL (≈ 4.49 µM) | solubility in water [3]: substantially insoluble in water | penetration into human skin [4]: minimal penetration into human skin
